Experimental data taken from PubChem BioAssay (NCI).
Values joined by “and” are separate entries in the source; they are usually repeats but may differ in a detail not shown here. Equal values may be shown once.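 Dose response: 5 concentrations. Exposure: 48 h. Format: 96-well plates. Endpoint: linear interpolation; highest concentration if not reached. Here, GI50 denotes the concentration required for 50% inhibition of growth. TGI marks complete inhibition of growth.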

Legend:
Assay in all cases: DTP human tumour cell line panel, 48 h
SW-620 colon = test system: SW-620 colon
HT29 colon = test system: HT29 colon
MDA-MB-231 breast = test system: MDA-MB-231 breast
SF-295 CNS = test system: SF-295 CNS
LOX IMVI melanoma = test system: LOX IMVI melanoma
ACHN renal = test system: ACHN renal
SN12C renal = test system: SN12C renal
SR leukemia = test system: SR leukemia
786-0 renal = test system: 786-0 renal
SK-MEL-28 melanoma = test system: SK-MEL-28 melanoma

How did the GI50 (SW-620 colon) turn out when `CO[C@H]1CC(c2ccc[nH]2)=N[C@]12O[C@@H](C)C[C@@H]1CCCCCCCc3ccc([nH]3)[C@H]12` was run?
The GI50 was 1.05 µM.

And the TGI (SW-620 colon)?
Its TGI is 7.96 µM.

What about the GI50 (HT29 colon) of the same molecule?
Its GI50 is 1.04 µM.

And the TGI (HT29 colon)?
The TGI was greater than 33.3 µM.

And the GI50 (MDA-MB-231 breast)?
The GI50 was 0.853 µM.

And the TGI (MDA-MB-231 breast)?
Its TGI is 5.23 µM.

And the GI50 (SF-295 CNS)?
The GI50 was 1.39 µM.

What about the TGI (SF-295 CNS) of the same molecule?
The TGI was 7.92 µM.

What about the GI50 (LOX IMVI melanoma) of the same molecule?
The GI50 was 0.52 µM.

And the TGI (LOX IMVI melanoma)?
Its TGI is 1.26 µM.

What about the GI50 (ACHN renal) of the same molecule?
Its GI50 is 1.22 µM.

And the TGI (ACHN renal)?
The TGI was 4.76 µM.

What about the GI50 (SN12C renal) of the same molecule?
The GI50 was 1.49 µM.

What about the TGI (SN12C renal) of the same molecule?
Its TGI is 18.9 µM.

What about the GI50 (SR leukemia) of the same molecule?
The GI50 was 0.72 µM.

And the TGI (SR leukemia)?
Its TGI is 4.93 µM.

And the GI50 (786-0 renal)?
Its GI50 is 1.25 µM.

What about the TGI (786-0 renal) of the same molecule?
The TGI was 6.53 µM.

And the GI50 (SK-MEL-28 melanoma)?
Its GI50 is 1.92 µM.

What about the TGI (SK-MEL-28 melanoma) of the same molecule?
Its TGI is 8.26 µM.

Which results are given for `OCCN1CCN(CC/C=C2\c3ccccc3Sc3ccc(Cl)cc32)CC1`?
GI50 (SW-620 colon): 2.38 µM and 1.91 µM; TGI (SW-620 colon): 5.48 µM and 4.01 µM; GI50 (HT29 colon): 1.72 µM and 1.69 µM; TGI (HT29 colon): 3.92 µM and 3.42 µM; GI50 (MDA-MB-231 breast): 2.62 µM and 2.09 µM; TGI (MDA-MB-231 breast): 12 µM and 6.46 µM; GI50 (SF-295 CNS): 1.79 µM and 2.17 µM; TGI (SF-295 CNS): 5.07 µM and 5.33 µM; GI50 (LOX IMVI melanoma): 1.96 µM and 1.65 µM; TGI (LOX IMVI melanoma): 3.89 µM and 3.13 µM; GI50 (ACHN renal): 5.06 µM and 6.56 µM; TGI (ACHN renal): 17 µM and 17.9 µM; GI50 (SN12C renal): 7.12 µM and 7.01 µM; TGI (SN12C renal): 27.4 µM and 20.4 µM; GI50 (SR leukemia): 1.7 µM; TGI (SR leukemia): 4.59 µM; GI50 (786-0 renal): 1.82 µM and 3.06 µM; TGI (786-0 renal): 3.65 µM and 8.58 µM; GI50 (SK-MEL-28 melanoma): 1.66 µM; TGI (SK-MEL-28 melanoma): 3.91 µM and 3.03 µM

Which TGI (SW-620 colon) does the source give for `CNC(=O)OCC1C2=C(C(=O)C(C)=C(N)C2=O)N2CC3C(N3C)C12OC` (centres undefined) here?
Its TGI is 24.2 µM.

And the TGI (HT29 colon)?
Its TGI is 34.7 µM.

What about the TGI (MDA-MB-231 breast) of the same molecule?
Its TGI is greater than 100 µM.

What about the TGI (SF-295 CNS) of the same molecule?
Its TGI is 67 µM.

What about the TGI (LOX IMVI melanoma) of the same molecule?
The TGI was 33.9 µM.

What about the TGI (ACHN renal) of the same molecule?
The TGI was 26.7 µM.

And the TGI (SN12C renal)?
The TGI was greater than 100 µM.

What about the TGI (SR leukemia) of the same molecule?
The TGI was greater than 100 µM.

And the TGI (786-0 renal)?
The TGI was 21.2 µM.

What about the TGI (SK-MEL-28 melanoma) of the same molecule?
The TGI was greater than 100 µM.

For `Cc1cc2c(cc1N)C(C)C1(CCC(=O)N2Cc2ccccc2)OCCO1` (centres undefined), which TGI (SW-620 colon) is on record?
Its TGI is greater than 100 µM.

What about the TGI (HT29 colon) of the same molecule?
The TGI was greater than 100 µM.

And the TGI (MDA-MB-231 breast)?
The TGI was greater than 100 µM.

What about the TGI (SF-295 CNS) of the same molecule?
Its TGI is greater than 100 µM.

What about the TGI (LOX IMVI melanoma) of the same molecule?
The TGI was greater than 100 µM.

And the TGI (ACHN renal)?
Its TGI is greater than 100 µM.

What about the TGI (SN12C renal) of the same molecule?
Its TGI is greater than 100 µM.

What about the TGI (SR leukemia) of the same molecule?
The TGI was greater than 100 µM.

And the TGI (786-0 renal)?
The TGI was greater than 100 µM.

What about the TGI (SK-MEL-28 melanoma) of the same molecule?
Its TGI is greater than 100 µM.

How did the TGI (SW-620 colon) turn out when `O=C1CC(c2ccc(Cl)cc2)Oc2ccccc21` (centres undefined) was run?
The TGI was greater than 100 µM.

And the TGI (HT29 colon)?
The TGI was 21.2 µM.

What about the TGI (MDA-MB-231 breast) of the same molecule?
The TGI was 53.9 µM.

And the TGI (SF-295 CNS)?
Its TGI is greater than 100 µM.

What about the TGI (LOX IMVI melanoma) of the same molecule?
The TGI was 93.6 µM.

What about the TGI (ACHN renal) of the same molecule?
The TGI was greater than 100 µM.

What about the TGI (SR leukemia) of the same molecule?
Its TGI is 28 µM.

What about the TGI (786-0 renal) of the same molecule?
Its TGI is 32.4 µM.

What about the TGI (SK-MEL-28 melanoma) of the same molecule?
Its TGI is greater than 100 µM.

`C/C=C(\C)C(=O)N[C@H]1C(O)C[C@]2(C)C3CC[C@@]4(C)C(CC[C@@H]4C(C)N(C)C)C3CCC2C1O` (some centres undefined) was tested. Which GI50 (SW-620 colon) did it give?
The GI50 was 2.31 µM.

And the TGI (SW-620 colon)?
Its TGI is 6.06 µM.

What about the GI50 (HT29 colon) of the same molecule?
The GI50 was 1.4 µM.

And the TGI (HT29 colon)?
Its TGI is 5.18 µM.

And the GI50 (MDA-MB-231 breast)?
The GI50 was 6.06 µM.

What about the TGI (MDA-MB-231 breast) of the same molecule?
The TGI was 18 µM.

What about the GI50 (SF-295 CNS) of the same molecule?
The GI50 was 8.83 µM.

And the TGI (SF-295 CNS)?
The TGI was 29 µM.

What about the GI50 (LOX IMVI melanoma) of the same molecule?
Its GI50 is 1.81 µM.

What about the TGI (LOX IMVI melanoma) of the same molecule?
The TGI was 4.7 µM.

And the GI50 (ACHN renal)?
Its GI50 is 10.3 µM.

And the TGI (ACHN renal)?
The TGI was 43.4 µM.

And the GI50 (SN12C renal)?
Its GI50 is 8.47 µM.

And the TGI (SN12C renal)?
Its TGI is 37.9 µM.

What about the GI50 (786-0 renal) of the same molecule?
Its GI50 is 4.95 µM.

What about the TGI (786-0 renal) of the same molecule?
The TGI was 10.6 µM.

And the GI50 (SK-MEL-28 melanoma)?
The GI50 was 2.04 µM.

And the TGI (SK-MEL-28 melanoma)?
Its TGI is 3.83 µM.

With `O=C1NCCS(=O)(=O)/C1=C\C=C\c1cccc(C(F)(F)F)c1` as the molecule, how does the GI50 (SW-620 colon) read?
Its GI50 is 2.65 µM.

And the TGI (SW-620 colon)?
Its TGI is 7.56 µM.

What about the GI50 (HT29 colon) of the same molecule?
The GI50 was 2.3 µM.

And the TGI (HT29 colon)?
Its TGI is 5.38 µM.

What about the GI50 (MDA-MB-231 breast) of the same molecule?
The GI50 was 4.21 µM.

What about the TGI (MDA-MB-231 breast) of the same molecule?
Its TGI is 15.9 µM.

What about the GI50 (SF-295 CNS) of the same molecule?
The GI50 was 3.71 µM.

And the TGI (SF-295 CNS)?
The TGI was 15 µM.

What about the GI50 (LOX IMVI melanoma) of the same molecule?
The GI50 was 1.23 µM.

And the TGI (LOX IMVI melanoma)?
The TGI was 2.61 µM.

What about the GI50 (ACHN renal) of the same molecule?
Its GI50 is 1.99 µM.

And the TGI (ACHN renal)?
Its TGI is 4.52 µM.

What about the GI50 (SN12C renal) of the same molecule?
The GI50 was 3.08 µM.

And the TGI (SN12C renal)?
The TGI was 12 µM.

What about the GI50 (SR leukemia) of the same molecule?
The GI50 was 0.539 µM.

And the TGI (SR leukemia)?
Its TGI is greater than 100 µM.

And the GI50 (786-0 renal)?
Its GI50 is 2.64 µM.

And the TGI (786-0 renal)?
The TGI was 7.67 µM.

What about the GI50 (SK-MEL-28 melanoma) of the same molecule?
Its GI50 is 2.92 µM.

What about the TGI (SK-MEL-28 melanoma) of the same molecule?
Its TGI is 11.3 µM.

Which results are given for `CC(=O)Oc1ccc(C(c2ccc(OC(C)=O)cc2)c2ccccn2)cc1`?
TGI (SW-620 colon): > 100 µM; TGI (HT29 colon): > 100 µM; GI50 (MDA-MB-231 breast): 48 µM; TGI (MDA-MB-231 breast): > 100 µM; GI50 (SF-295 CNS): 37.1 µM; TGI (SF-295 CNS): > 100 µM; GI50 (LOX IMVI melanoma): 52.7 µM; TGI (LOX IMVI melanoma): > 100 µM; GI50 (ACHN renal): 36.8 µM; TGI (ACHN renal): > 100 µM; GI50 (SN12C renal): 0.558 µM; TGI (SN12C renal): > 100 µM; GI50 (SR leukemia): > 100 µM; TGI (SR leukemia): > 100 µM; TGI (786-0 renal): > 100 µM; GI50 (SK-MEL-28 melanoma): 61.5 µM; TGI (SK-MEL-28 melanoma): > 100 µM
